The values below come from PubChem BioAssay (NCI).

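Dose response: 5 concentrations. Exposure: 48 h. Format: 96-well plates. Endpoint: linear interpolation; highest concentration if not reached. TGI: concentration producing complete growth inhibition.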

This test relates to LXFL 529 NSCLC. Description: NCI anticancer screen, dose series, 48 h.

`C=C=CC(NC(=O)c1ccccc1)(C(=O)O)C(F)(F)F` (stereo unspecified) showed a TGI greater than 100 µM.
